Experimental data taken from patent US9943471B2, “Beta-2-adrenergic receptor agonist for improving skin scar colour matching” (UNIVERSITY OF LEICESTER, priority 2013, dated 2018).
Read-outs that look alike come from different tables or passages of the source.

Assays:
[1] = system: full-thickness wounds, Red Duroc pig; test: Red Duroc pig wound scar study: scar scale scores; assay type: in vivo
Text: Anatomically and physiologically, porcine skin is very similar to human skin [19]. Wounds in small mammal skin, which is untethered, heal primarily by wound contraction, whereas porcine and human skin wounds close primarily by wound re-epithelialisation. The Red Duroc pig is well established as a reproducible model of fibro proliferative and hypertrophic scar formation. Similar to human hypertrophic scars, Red Duroc pigs heal wounds with an excessive amount of collagen deposition and increased wound contraction. In addition, the wounds heal with hyperpigmentation at the wound margins creating hyperpigmented scars and the scars are raised, similar to human scars. […] A porcine wound scar study was conducted in the Red Duroc pig. 4 rows of 5 (2×2 cm) full-thickness wounds were created, either side of the spine, on the shaved backs of 10 Red Durocs (FIGS. 1, 4). […] Two wounds per animal were biopsied (6 mm punch) at 7, 14, 21, 28 and 42 days post wounding. The remaining 10 wound scars per animal were photographed and harvested at day 56 post-wounding, giving a total of 5 wounds per position, 50 wounds in total for each group. A number of scales have been developed to score the severity of human scars. The Vancouver scar scale (VSS), the Manchester scar scale (MSS) and the patient and observer scar assessment scale (POSAS). We developed our own scale to score the severity of the Red Duroc scars based on the VSS [7] and the MSS [8]. The patient and observer scar assessment scale (POSAS) could not be used as it requires patient involvement. The VSS measures four parameters: pigmentation, vascularity, pliability and height, while the MSS measures colour, contour, distortion and texture. Our scar scale was developed to score a number of scar characteristics including: pigmentation, colour match with surrounding tissue, skin sheen, pliability, texture and height contour.

[2] = system: full-thickness wounds, Red Duroc pig; test: Red Duroc pig wound scar study: scar area and wound area; assay type: in vivo; design: scar area reduction / scar area smaller than control wounds / wound area smaller than control (less swollen) / wound area larger than control (less contracted): concentration or dose not given beside the values
Experimental: A porcine wound scar study was conducted in the Red Duroc pig. 4 rows of 5 (2×2 cm) full-thickness wounds were created, either side of the spine, on the shaved backs of 10 Red Durocs (FIGS. 1, 4). […] Two wounds per animal were biopsied (6 mm punch) at 7, 14, 21, 28 and 42 days post wounding. The remaining 10 wound scars per animal were photographed and harvested at day 56 post-wounding, giving a total of 5 wounds per position, 50 wounds in total for each group. The scar closest to the average scar area, at each position, for both control and sal-treated wounds are presented (FIG. 5b). […] Indeed, by day 28 and 42 post-wounding the scar area of the sal-treated wounds was already 34.1% and 37.7% smaller than control wounds (FIG. 6a; ***P<0.001). Wound area was also measured in early time points.

βARs = system: βARs; design: dose or concentration left out as unconfirmed; conditions: cited from earlier work
melanocytes = conditions: cited from earlier work
melanoma cells = conditions: cited from earlier work
age spots = conditions: added topically, Chinese females with age spots; cited from earlier work
[3] = 5 mM in Granugel, 500 μl per wound daily, day 56, vs control

SMILES: CC(C)(C)NCC(O)c1ccc(O)c(CO)c1 (stereo not drawn) [salbutamol]
- improvement of colour match score [1, 3]: 44%
- improvement of height contour score [1, 3]: 34%
- improvement of pigmentation score [1, 3]: 48%
- improvement of pliability score [1, 3]: 22%
- improvement of sheen score [1, 3]: 53%
- improvement of texture score [1, 3]: 22%
- scar appearance vs control scars ([1]; day 56 post-wounding, P<0.0001): less hyper-pigmented
- scar area reduction ([2]; 56 days post wounding, vs control): 47.1%
- wound area smaller than control (less swollen) ([2]; after 7 days): 11%
- wound area larger than control (less contracted) ([2]; after 14 days): 23%
- wound area vs control wounds ([2]; by 28 days): slightly smaller
- scar area smaller than control wounds ([2]; day 28 post-wounding): 34.1%
- scar area smaller than control wounds ([2]; day 42 post-wounding): 37.7%
- re-epithelialisation rate vs control wounds ([2]; early time points): No significant difference
- activation of βARs (βARs): activate all βARs
- cAMP levels (melanocytes; melanocytes, in association with increased melanogenesis): enhances cAMP levels

SMILES: CNCC(O)c1ccc(O)c(O)c1 (stereo not drawn) [Adrenaline, adrenaline]
- melanin production / melanogenesis in melanocytes (melanocytes): increased melanin production
- melanin production / melanogenesis in melanocytes (melanocytes; listed as Epinephrine): increases melanin synthesis

SMILES: NC[C@H](O)c1ccc(O)c(O)c1 [noradrenaline]
- melanin production / melanogenesis in melanocytes (melanocytes): no effect

SMILES: C=CCCCCCCCCC(=O)N[C@@H](Cc1ccccc1)C(=O)O [undecylenoyl phenylalanine]
- melanin production (melanoma cells): suppressed melanin production
- skin lightening (age spots): skin lightening effect
